Counter-ions that a name gives are not always drawn.
Tests used:
SHP2 = SHP2 (Homo sapiens (Human), UniProt Q06124); assay: Shp2 Biochemical Assay (DiFMUP conversion); conditions: for IC50: 10 pM SHP2, activating peptide pIRS1, DiFMUP substrate, average where more than one data point
Experimental: SHP2 activity was monitored by measuring the conversion of the surrogate substrate 6,8-difluoromethylumbelliferyl phosphate (DiFMUP) to the fluorescent product, 6,8-difluoromethylumbelliferone (DiFMU).
SHP2 was pre-incubated with test compounds and the activating peptide pIRS1 (H2N-LN(pY)IDLDLV-(PEG)8-LST(pY)ASINFQK-amide) for 30 min, prior to addition of the 6,8-difluoromethylumbelliferyl phosphate (DiFMUP), (Thermo Fisher D6567). Final assay concentrations were 10 pM SHP2, 0.25 μM pIRS1 peptide, 50 μM DiFMUP, 25 mM Bis-Tris propane, pH 7.0, 150 mM NaCl, 0.05% (v/v) Tween-20, 0.5 mM TCEP and 5% (v/v) DMSO. Rates of reaction were then measured over 30 min by monitoring fluorescence on a BMG Pherastar reader at excitation 360 nm/emission 450 nm. IC50 values were calculated from the normalized dose-response plots using four parameter logistic curve fit.

pERK = assay: Cellular pERK Inhibition Assay (phospho-p44/42 MAPK sandwich ELISA); assay type: cell-based; conditions: Homo sapiens; HCC827 cells, 0.5 hours compound treatment; average where more than one data point
Experimental: Cellular pERK Inhibition Assay
HCC827 cells (ATCC, Manassas, USA) were seeded into 96-well plates at a density of 1×10^5 cells/well in RPMI medium supplemented with 10% FBS and incubated 24 h. Compounds were diluted first in DMSO and then into serum-free medium, before being added to cells in triplicate to give a final concentration of 0.1% DMSO. Plates were incubated at 37° C. for 0.5 hours in a humidified atmosphere of 5% CO2 in air.
Following compound treatment, medium was removed and cells were lysed by adding 50 μL of lysis buffer (Cell Signalling Technology, Beverly, USA) to each well. Plates were then incubated at room temperature for 25 minutes with shaking. pERK levels were measured in lysates using the PathScan® phospho-p44/42 MAPK (Thr202/Tyr204) sandwich ELISA (Cell Signalling Technology, Beverly, USA) as per kit instructions. Briefly, 50 μL of cell lysate was added to 50 μL of ELISA sample diluent in a 96-well ELISA plate and incubated overnight at 4° C. Following washing, 100 μL of detection antibody was added per well and the plates incubated for 1 hour at 37° C. Plates were washed again and incubated at 37° C. for 30 minutes with 100 μl of HRP-linked secondary antibody per well. After final washing, 100 μL per well of TMB substrate was added and plates incubated at 37° C. to develop colour. Colour development was stopped by the addition of 100 μL per well of stop solution. Plates were read at 450 nm on a SpectraMax Gemini reader (Molecular Devices, Uckfield, UK).
The average signal from blank wells (no cells added) was subtracted from the signals from each sample well. Levels of pERK were then expressed as “percent of control”, using DMSO treated samples as control. Dose response curves were generated using GraphPad Prism Version 6 (GraphPad Software, La Jolla, USA) and fitted using the four parameter logistic curve fit.

SMILES | IC50 (SHP2) | IC50 (pERK) | inhibition at 0.03 µM (SHP2; at 0.030 μM, read-out: SHP2 % inhibition at given concentration) | inhibition at 0.01 µM (SHP2; at 0.010 μM, read-out: SHP2 % inhibition at given concentration) | inhibition at 0.003 µM (SHP2; at 0.0030 μM, read-out: SHP2 % inhibition at given concentration)
Cc1nc2c(-c3ccc4nn(C)cc4c3Cl)n[nH]c2nc1N1CCC2(CC1)C[C@@H](C(F)(F)F)C[C@H]2N [Example 1, (1R,3R)-8-[3-(4-chloro-2-methyl-2H-indazol-5-yl)-5-methyl-1H-pyrazolo[3,4-b]pyrazin-6-yl]-3-(trifluoromethyl)-8-azaspiro[4.5]decan-1-amine hydrochloride] | 0.02 µM | 0.074 µM | – | – | –
Cc1nc2c(-c3ccc4nn(C)cc4c3Cl)n[nH]c2nc1N1CCC2(CC1)CC(F)(F)C[C@H]2N [Example 2, (1R)-8-[3-(4-chloro-2-methyl-2H-indazol-5-yl)-5-methyl-1H-pyrazolo[3,4-b]pyrazin-6-yl]-3,3-difluoro-8-azaspiro[4.5]decan-1-amine hydrochloride] | 0.017 µM | 0.081 µM | – | – | –
Cc1nc2c(-c3ccc4nn(C)cc4c3Cl)n[nH]c2nc1N1CCC2(CC1)COC[C@H]2N [Example 3, (4S)-8-[3-(4-chloro-2-methyl-2H-indazol-5-yl)-5-methyl-1H-pyrazolo[3,4-b]pyrazin-6-yl]-2-oxa-8-azaspiro[4.5]decan-4-amine] | 0.0056 µM | 0.04 µM | – | – | –
Cc1nc2c(-c3ccc4nn(C)c(Cl)c4c3Cl)n[nH]c2nc1N1CCC2(CC1)COC[C@H]2N [Example 4, (4S)-8-[3-(3,4-dichloro-2-methyl-2H-indazol-5-yl)-5-methyl-1H-pyrazolo[3,4-b]pyrazin-6-yl]-2-oxa-8-azaspiro[4.5]decan-4-amine] | 0.0053 µM | – | – | – | –
CCn1cc2c(Cl)c(-c3n[nH]c4nc(N5CCC6(CC5)COC[C@H]6N)c(C)nc34)ccc2n1 [Example 5, (4S)-8-[3-(4-chloro-2-ethyl-2H-indazol-5-yl)-5-methyl-1H-pyrazolo[3,4-b]pyrazin-6-yl]-2-oxa-8-azaspiro[4.5]decan-4-amine] | 0.0076 µM | 0.046 µM | – | – | –
COc1cnc2ccc(-c3n[nH]c4nc(N5CCC6(CC5)CO[C@@H](C)[C@H]6N)c(C)nc34)c(Cl)c2n1 [Example 9, (3S,4S)-8-[3-(5-chloro-3-methoxyquinoxalin-6-yl)-5-methyl-1H-pyrazolo[3,4-b]pyrazin-6-yl]-3-methyl-2-oxa-8-azaspiro[4.5]decan-4-amine hydrochloride] | 0.018 µM | 0.045 µM | – | – | –
COc1cnc2ccc(-c3n[nH]c4nc(N5CCC6(CC5)COC[C@H]6N)c(C)nc34)c(Cl)c2n1 [Example 13, (4S)-8-[3-(5-chloro-3-methoxyquinoxalin-6-yl)-5-methyl-1H-pyrazolo[3,4-b]pyrazin-6-yl]-2-oxa-8-azaspiro[4.5]decan-4-amine] | – | 0.095 µM | – | 35% | –
COc1cnc2ccc(-c3n[nH]c4nc(N5CCC6(CCC[C@H]6N)CC5)c(C)nc34)c(Cl)c2n1 [Example 14, (1R)-8-[3-(5-chloro-3-methoxyquinoxalin-6-yl)-5-methyl-1H-pyrazolo[3,4-b]pyrazin-6-yl]-8-azaspiro[4.5]decan-1-amine] | 0.013 µM | 0.15 µM | – | – | –
Cc1nc2c(-c3ccc4nn(C)c(Cl)c4c3Cl)n[nH]c2nc1N1CCC2(CCC[C@H]2N)CC1 [Example 15, (1R)-8-[3-(3,4-dichloro-2-methyl-2H-indazol-5-yl)-5-methyl-1H-pyrazolo[3,4-b]pyrazin-6-yl]-8-azaspiro[4.5]decan-1-amine] | 0.0076 µM | 0.059 µM | – | – | –
Cc1nc2c(-c3cccc(Cl)c3F)n[nH]c2nc1N1CCC2(CC1)CO[C@@H](C)[C@H]2N [Example 19, (3S,4S)-8-[3-(3-chloro-2-fluorophenyl)-5-methyl-1H-pyrazolo[3,4-b]pyrazin-6-yl]-3-methyl-2-oxa-8-azaspiro[4.5]decan-4-amine] | 0.0098 µM | 0.1 µM | – | – | –

The next lines start with the values.

IC50 (SHP2) | IC50 (pERK) | inhibition at 0.03 µM (SHP2; at 0.030 μM, read-out: SHP2 % inhibition at given concentration) | inhibition at 0.01 µM (SHP2; at 0.010 μM, read-out: SHP2 % inhibition at given concentration) | inhibition at 0.003 µM (SHP2; at 0.0030 μM, read-out: SHP2 % inhibition at given concentration) | SMILES
0.018 µM | 0.012 µM | – | – | – | Cc1nc2c(-c3ccc4nn(C)cc4c3Cl)n[nH]c2nc1N1CCC2(CC1)CO[C@@H](C)[C@H]2N [Example 6, (3S,4S)-8-[3-(4-Chloro-2-methyl-2H-indazol-5-yl)-5-methyl-1H-pyrazolo[3,4-b]pyrazin-6-yl]-3-methyl-2-oxa-8-azaspiro[4.5]decan-4-amine]
0.011 µM | 0.0063 µM | – | – | – | Cn1cc2c(Cl)c(-c3n[nH]c4nc(N5CCC6(CC5)CC(F)(F)C[C@H]6N)c(CO)nc34)ccc2n1 [Example 7, {6-[(1R)-1-amino-3,3-difluoro-8-azaspiro[4.5]decan-8-yl]-3-(4-chloro-2-methyl-2H-indazol-5-yl)-1H-pyrazolo[3,4-b]pyrazin-5-yl}methanol]
0.0071 µM | 0.0036 µM | – | – | – | C[C@@H]1OCC2(CCN(c3nc4[nH]nc(-c5ccc6nn(C)c(Cl)c6c5Cl)c4nc3CO)CC2)[C@@H]1N [Example 8, {6-[(3S,4S)-4-amino-3-methyl-2-oxa-8-azaspiro[4.5]decan-8-yl]-3-(3,4-dichloro-2-methyl-2H-indazol-5-yl)-1H-pyrazolo[3,4-b]pyrazin-5-yl}methanol]
0.019 µM | 0.017 µM | – | – | – | Cc1nc2c(-c3ccc4ncc(N(C)C)nc4c3Cl)n[nH]c2nc1N1CCC2(CC1)CO[C@@H](C)[C@H]2N [Example 10, (3S,4S)-8-{3-[5-chloro-3-(dimethylamino)quinoxalin-6-yl]-5-methyl-1H-pyrazolo[3,4-b]pyrazin-6-yl}-3-methyl-2-oxa-8-azaspiro[4.5]decan-4-amine]
– | 0.032 µM | 66% | – | – | Cc1nc2c(-c3ccc4ncc(N(C)C)nc4c3Cl)n[nH]c2nc1N1CCC2(CC1)COC[C@H]2N [Example 11, (4S)-8-{3-[5-chloro-3-(dimethylamino)quinoxalin-6-yl]-5-methyl-1H-pyrazolo[3,4-b]pyrazin-6-yl}-2-oxa-8-azaspiro[4.5]decan-4-amine]
0.015 µM | 0.033 µM | – | – | – | Cc1nc2c(-c3ccc4ncc(N(C)C)nc4c3Cl)n[nH]c2nc1N1CCC2(CCC[C@H]2N)CC1 [Example 12, 7-(6-[(1R)-1-amino-8-azaspiro[4.5]decan-8-yl]-5-methyl-1H-pyrazolo[3,4-b]pyrazin-3-yl}-8-chloro-N,N-dimethyl-quinoxalin-2-amine]
0.007 µM | 0.0062 µM | – | – | – | Cn1nc2ccc(-c3n[nH]c4nc(N5CCC6(CC5)CC(F)(F)C[C@H]6N)c(CO)nc34)c(Cl)c2c1Cl [Example 16, {6-[(1R)-1-amino-3,3-difluoro-8-azaspiro[4.5]decan-8-yl]-3-(3,4-dichloro-2-methyl-2H-indazol-5-yl)-1H-pyrazolo[3,4-b]pyrazin-5-yl}methanol]
0.014 µM | 0.0053 µM | – | – | – | C[C@@H]1OCC2(CCN(c3nc4[nH]nc(-c5ccc6ncc(N(C)C)nc6c5Cl)c4nc3CO)CC2)[C@@H]1N [Example 17, {6-[(3S,4S)-4-amino-3-methyl-2-oxa-8-azaspiro[4.5]decan-8-yl]-3-[5-chloro-3-(dimethylamino)quinoxalin-6-yl]-1H-pyrazolo[3,4-b]pyrazin-5-yl}methanol]
– | 0.0049 µM | – | – | 37% | C[C@@H]1OCC2(CCN(c3nc4[nH]nc(-c5cccc(Cl)c5Cl)c4nc3CO)CC2)[C@@H]1N [Example 18, {6-[(3S,4S)-4-amino-3-methyl-2-oxa-8-azaspiro[4.5]decan-8-yl]-3-(2,3-dichlorophenyl)-1H-pyrazolo[3,4-b]pyrazin-5-yl}methanol]
0.0071 µM | 0.0041 µM | – | – | – | Cn1nc2ccc(-c3n[nH]c4nc(N5CCC6(CC5)C[C@H](F)C[C@H]6N)c(CO)nc34)c(Cl)c2c1Cl [Example 20, {6-[(1R,3S)-1-amino-3-fluoro-8-azaspiro[4.5]decan-8-yl]-3-(3,4-dichloro-2-methyl-2H-indazol-5-yl)-1H-pyrazolo[3,4-b]pyrazin-5-yl}methanol]

From patent publication US12458640B2, “Pyrazolo[3,4-b]pyrazine SHP2 phosphatase inhibitors” (OTSUKA PHARMACEUTICAL CO., LTD., priority 2019, dated 2025)
